How the values were obtained:
[1] = Particle size distribution of recrystallised fluticasone propionate by laser diffraction (Malvern Mastersizer 2000); type: physicochemical; conditions: for D[v, 0.1]: 10th percentile volume diameter; for D[v, 0.1] / D[v, 0.5] / D[v, 0.9]: recrystallised batch, before micronisation; for D[v, 0.5]: 50th percentile (median) volume diameter; for D[v, 0.9]: 90th percentile volume diameter; for Ingoing particle size D[v, 0.5]: before micronisation (Table 3)
Procedure: The particle size distribution was measured on the Malvern Mastersizer 2000 laser diffraction system equipped with a Hydro 2000S liquid dispersion unit and flow cell. The sample was prepared by adding 15 drops of Tween 80 to crystallised fluticasone propionate within the glass 4 dram vial and mixing into a paste using a spatula, until all of the powder is wetted out and a smooth, uniform paste is achieved. Then the paste is added to the Hydro 2000S containing dispersant (0.1% Tween 80 in deionised water) using a spatula. When the obscuration target is achieved (20%±5%) the sample is left to stir within the Hydro 2000S for 1 minute to allow the particles to wet out, disperse and ensure a stable obscuration is achieved. Measurement is initiated after 1 minute of stirring.
The particle size data expressed as D[v, 0.1], D[v, 0.5] and D[v, 0.9] obtained from examples 2-9 are summarized below in Table 2. D[v, 0.1], D[v, 0.5] and D[v, 0.9] represent the 10th percentile volume diameter; 50th percentile volume diameter; and 90th percentile volume diameter respectively. In general the n^th percentile volume diameter is defined so that n % of the particles have a volume equivalent particle diameter smaller than or equal to the n^th percentile diameter. In the case of D[v, 0.5], it coincides with the median value.

[2] = Particle size distribution of micronised fluticasone propionate by laser diffraction (Sympatec HELOS); type: physicochemical; conditions: after jet milling, JetPharma MC150, feed 15 g/min, mill pressure 3.5 bar, venturi 5.5 bar
Procedure: The particle size distribution was measured on the Sympatec HELOS laser diffraction system (with R1 optical module giving a measuring range of 0.1/0.18-35 μm) together with SUCELL dispersing module. 100 mg of micronised sample is weighed into a 4-dram vial and 15 drops (approximately 0.5 mL) of Tween 80 is added from a 3 ml wide-tipped pipette to the powder. The mixture is then carefully stirred into a paste until all the particles are wetted out and a uniform smooth mixture is achieved. Then the paste is added to the SUCELL containing dispersant (0.025% Tween 80 in deionised water) using a spatula. Once the optical concentration target is achieved (10-15%) then a measurement is taken.
Particles were micronized using a JetPharma MC150 (6 inch spiral jet mill) using the following conditions: • Feed rate: 15 g/min • Mill pressure: 3.5 bar • Venturi Pressure: 5.5 bar • Micronisation scale: 0.5 Kg.

SMILES | D[v, 0.1] [1] | D[v, 0.5] [1] | D[v, 0.9] [1] | Ingoing particle size D[v, 0.5] [1] | Post-micronisation particle size D[v, 0.5] [2]
CCC(=O)O[C@]1(C(=O)SCF)[C@H](C)C[C@H]2[C@@H]3C[C@H](F)C4=CC(=O)C=C[C@]4(C)[C@@]3(F)[C@@H](O)C[C@@]21C [Example 6, S-(fluoromethyl)-6α,9-difluoro-11β-17-dihydroxy-16α-methyl-3-oxoandrosta-1,4-diene-17β-carbothioate, 17-propionate] | 2.0 μm | 5.3 μm | 12.4 μm | – | –
CCC(=O)O[C@]1(C(=O)SCF)[C@H](C)C[C@H]2[C@@H]3C[C@H](F)C4=CC(=O)C=C[C@]4(C)[C@@]3(F)[C@@H](O)C[C@@]21C [Example 3, S-(fluoromethyl)-6α,9-difluoro-11β-17-dihydroxy-16α-methyl-3-oxoandrosta-1,4-diene-17β-carbothioate, 17-propionate] | 2.1 μm | 5.1 μm | 11.357 μm | – | –
CCC(=O)O[C@]1(C(=O)SCF)[C@H](C)C[C@H]2[C@@H]3C[C@H](F)C4=CC(=O)C=C[C@]4(C)[C@@]3(F)[C@@H](O)C[C@@]21C [Example 5, S-(fluoromethyl)-6α,9-difluoro-11β-17-dihydroxy-16α-methyl-3-oxoandrosta-1,4-diene-17β-carbothioate, 17-propionate] | 2.1 μm | 5.9 μm | 15.2 μm | – | –
CCC(=O)O[C@]1(C(=O)SCF)[C@H](C)C[C@H]2[C@@H]3C[C@H](F)C4=CC(=O)C=C[C@]4(C)[C@@]3(F)[C@@H](O)C[C@@]21C [Example 4, S-(fluoromethyl)-6α,9-difluoro-11β-17-dihydroxy-16α-methyl-3-oxoandrosta-1,4-diene-17β-carbothioate, 17-propionate] | 15.4 μm | 55.1 μm | 135.9 μm | – | –

Second part, the compound after the results:

D[v, 0.1] [1] | D[v, 0.5] [1] | D[v, 0.9] [1] | Ingoing particle size D[v, 0.5] [1] | Post-micronisation particle size D[v, 0.5] [2] | SMILES
2.5 μm | 6.7 μm | 15.7 μm | – | – | CCC(=O)O[C@]1(C(=O)SCF)[C@H](C)C[C@H]2[C@@H]3C[C@H](F)C4=CC(=O)C=C[C@]4(C)[C@@]3(F)[C@@H](O)C[C@@]21C [Example 2, S-(fluoromethyl)-6α,9-difluoro-11β-17-dihydroxy-16α-methyl-3-oxoandrosta-1,4-diene-17β-carbothioate, 17-propionate]
6.2 μm | 22.5 μm | 53.4 μm | 22.5 μm | 4.0 μm | CCC(=O)O[C@]1(C(=O)SCF)[C@H](C)C[C@H]2[C@@H]3C[C@H](F)C4=CC(=O)C=C[C@]4(C)[C@@]3(F)[C@@H](O)C[C@@]21C [Example 9, S-(fluoromethyl)-6α,9-difluoro-11β-17-dihydroxy-16α-methyl-3-oxoandrosta-1,4-diene-17β-carbothioate, 17-propionate]
1.3 μm | 2.8 μm | 5.6 μm | 2.8 μm | 2.3 μm | CCC(=O)O[C@]1(C(=O)SCF)[C@H](C)C[C@H]2[C@@H]3C[C@H](F)C4=CC(=O)C=C[C@]4(C)[C@@]3(F)[C@@H](O)C[C@@]21C [Example 8, S-(fluoromethyl)-6α,9-difluoro-11β-17-dihydroxy-16α-methyl-3-oxoandrosta-1,4-diene-17β-carbothioate, 17-propionate]
3.4 μm | 11.4 μm | 32.1 μm | – | – | CCC(=O)O[C@]1(C(=O)SCF)[C@H](C)C[C@H]2[C@@H]3C[C@H](F)C4=CC(=O)C=C[C@]4(C)[C@@]3(F)[C@@H](O)C[C@@]21C [Example 7, S-(fluoromethyl)-6α,9-difluoro-11β-17-dihydroxy-16α-25 methyl-3-oxoandrosta-1,4-diene-17β-carbothioate, 17-propionate]

Source: patent US10370402B2, “Process for the preparation of fluticasone propionate form 1” (Pfizer Limited, priority 2011, dated 2019)
